Literature values as cited in paper PMC7610473, “Axial functionalisation of photoactive diazido platinum(iv) anticancer complexes” (Inorganic chemistry frontiers, 2020).

Set-up: method as in PMID 9399704

- pK a: 1.98
Compound: O=C(O)c1cc2ccc(O)cc2oc1=O [7-hydroxycoumarin-3 carboxylic acid]
